The source of these data is article PMC4754833, “Rilpivirine analogs potently inhibit drug-resistant HIV-1 mutants” (Retrovirology, 2016).

One assay concerns WT HIV-1. As to the kind of experiment: single round infection luciferase assay, WT HIV-1. The assay is classed as cell-based. The following applies: Human immunodeficiency virus 1. As to the method: (§1) The human osteosarcoma cell line, HOS, was obtained from Dr. Richard Schwartz (Michigan State University, East Lansing, MI) and grown in Dulbecco’s modified Eagle’s medium (Invitrogen, Carlsbad, CA) supplemented with 5 % (v/v) fetal bovine serum, 5 % newborn calf serum, and penicillin (50 units/ml) plus streptomycin (50 µg/ml; Quality Biological, Gaithersburg, MD). Virion production and single-round infectivity assays were used to determine antiviral activity (IC50 values) of the compounds as previously described.
(§2) pNLNgoMIVR-ΔEnv.LUC has been described previously. The RT open reading frame was removed from pNLNgoMIVR-ΔEnv.LUC (digestion with SpeI and SalI) and inserted between the SpeI and SalI sites of pBluescript II KS+. Using that construct as the wild-type template, we prepared the following HIV-1 RT mutants using the QuikChange II XL (Stratagene, La Jolla, CA) site-directed mutagenesis protocol kit: L100I, K103N, Y181C, Y188L, H221Y, K103N/Y181C, G190A, G190S, M230L, P236L, L100I/K103N, K103N/P225H, V106A/G190A/F227L, V106A, L234I, V106A/F227L, V106A/L234I, V106A/F227L/L234I, E40K, D67E, K101E, V111A, E138K, M184I, M184V, K101E/M184I, K101E/M184V, E138K/M184I, E138K/M184V, K101P, Y181I, and K101P/V179I. The following sense oligonucleotides were used with matching cognate antisense oligonucleotides (not shown) (Integrated DNA Technologies, Coralville, IA) in the mutagenesis: L100I, 5′-[…]-3′; L100I 2-103, 5′-[…]-3′; K103N, 5′-[…]-3′; Y181C, 5′-[…]-3′; Y188L, 5′-[…]-3′; H221Y, 5′-[…]-3′; G190A, 5′-[…]-3′; G190S, 5′-[…]-3′; P225H, 5′-[…]-3′; F227, 5′-[…]-3′; M230L, 5′-[…]-3′; P236L, 5′-[…]-3′; V106A, 5′-[…]-3′; L234I, 5′-[…]-3′; E40K, 5′-[…]-3′; D67E, 5′-[…]-3′; K101E, 5′-[…]-3′; V111A, 5′-[…]-3′; E138K, 5′-[…]-3′; M184I, 5′-[…]-3′; M184V, 5′-[…]-3′; K101P, 5′-[…]-3′; Y181I, 5′-[…]-3′; K101P/V179I, 5′-[…]-3′. The double mutants K103N/Y181C, K103N/P225H, and L100I/K103N were made using the previously generated K103N mutant and the appropriate oligonucleotides to add the second mutation, Y181C, P225, and L100I respectively. The double mutants V106A/F227L and V106A/L234I were prepared using the previously generated V106A mutant and the appropriate oligonucleotides to add the second mutation, F227L and L234I, respectively. The double mutants K101E/M184I and K101E/M184V were constructed using the previously generated K101E mutant and the appropriate oligonucleotides to add the second mutation, M184I and M184V, respectively. The double mutants E138K/M184I and E138K/M184V were constructed using the previously generated E138K mutant and the appropriate oligonucleotides for the second mutation, M184I and M184V, respectively. The triple mutant V106A/F227L/L234I was made using the previously generated V106A/F227L double mutant and the appropriate oligonucleotides for the third mutation, L234I. The triple mutant V106A/G190A/F227L was constructed in a series of steps using the previously generated V106A mutant and the appropriate oligonucleotides for the second mutation, G190A, to generate the double mutant V106A/G190A, and then the triple mutant was made using double mutant V106A/G190A and oligonucleotides for the third mutation, F227L. The DNA sequence of each construct was verified by DNA sequence determination. The sequences encoding the mutant RTs were then subcloned into pNLNgoMIVR-ΔEnv.LUC (between the KpnI and SalI sites) to produce the mutant HIV-1 constructs. These DNA sequences were also checked independently by DNA sequence determination.
(§3) 10.1186/s12977-016-0244-2 The IC50 values (nM) of RPV and the RPV analogs were determined against the NNRTI resistant mutants were measured by using a single round infection assay, n = 4. The concentrations (nM) are measured by reductions in luciferase reporter activity followed by the standard deviations. […]

Another assay relates to HIV-1 RT mutant G190S. As to the kind of experiment: single round infection assay, G190S. The assay is classed as cell-based. The settings on record: Human immunodeficiency virus 1. As to the method: as §1, §2, §3
In the next assay the test system is HIV-1 RT mutant M230L. Kind of assay: single round infection assay, M230L. The assay is classed as cell-based. The settings on record: for IC50: Human immunodeficiency virus 1, M230L, ± SD, n=4, limit of detection 100 nM; for fold-change of IC50 of the mutant relative to WT: M230L vs WT. As to the method: as §1, §2, §3
A further assay deals with HIV-1 RT mutant P236L. As to the kind of experiment: single round infection assay, P236L. The assay is classed as cell-based. The settings on record: for IC50: Human immunodeficiency virus 1; for fold-change of IC50 of the mutant relative to WT: P236L vs WT. Here is the method:
as §1, §2, §3

Assay [1] has as its system HIV-1 RT mutant L100I/K103N. Kind of assay: single round infection assay, L100I/K103N. The settings on record: for IC50: ± SD, n=4, limit of detection 100 nM; for fold-change of IC50 of the mutant relative to WT: L100I/K103N vs WT. The assay is classed as cell-based. As to the method:
as §1, §2, §3

The subject of assay [2] is HIV-1 RT mutant K103N/P225H. Kind of assay: single round infection assay, K103N/P225H. The assay is classed as cell-based. The settings on record: for IC50: Human immunodeficiency virus 1; for fold-change of IC50 of the mutant relative to WT: K103N/P225H vs WT. As to the method:
as §1, §2, §3

Assay [3] has as its system HIV-1 RT mutant V106A/G190A/F227L. Kind of assay: single round infection assay, V106A/G190A/F227L. The settings on record: for IC50: Human immunodeficiency virus 1; for fold-change of IC50 of the mutant relative to WT: V106A/G190A/F227L vs WT. The assay is classed as cell-based. Here is the method: as §1, §2, §3
For a further assay, the system named is HIV-1 RT mutant D67E. Kind of assay: single round infection assay, D67E. The assay is classed as cell-based. The following applies: for fold-change of IC50 of the mutant relative to WT: D67E vs WT; for IC50: ± SD, n=4. Here is the method:
as §1, §2, §3

The subject of assay [4] is HIV-1 RT mutant E138K/M184I. As to the kind of experiment: single round infection assay, E138K/M184I. The assay is classed as cell-based. The settings on record: for fold-change of IC50 of the mutant relative to WT: E138K/M184I vs WT; for IC50: ± SD, n=4. Here is the method:
as §1, §2, §3

The subject of assay [5] is HIV-1 RT mutant E138K/M184V. Kind of assay: single round infection assay, E138K/M184V. The following applies: for fold-change of IC50 of the mutant relative to WT: E138K/M184V vs WT; for IC50: ± SD, n=4. The assay is classed as cell-based. Here is the method: as §1, §2, §3
In assay [6] the test system is HIV-1 RT mutant K101P/V179I. Kind of assay: single round infection assay, K101P/V179I. The assay is classed as cell-based. The following applies: Human immunodeficiency virus 1. Here is the method:
as §1, §2, §3

For a further assay, the system named is HIV-1 RT mutant Y181C. On the set-up: method as in PMID 23217210. The settings on record: previous study; cited from earlier work.
In another assay the test system is HIV-1 RT mutant H221Y. Also noted: method as in PMID 23217210. The following applies: previous study; cited from earlier work.
Where [7] appears, read: Human immunodeficiency virus 1, L100I/K103N.
Where [8] appears, read: Human immunodeficiency virus 1, D67E.
Setting [9] is: Human immunodeficiency virus 1, E138K/M184I.
[10] abbreviates: Human immunodeficiency virus 1, E138K/M184V.

`Cc1cc(/C=C/C#N)cc(C)c1Nc1ncc(N)c(Nc2ccc(C#N)cc2)n1` [compound 9]: the IC50 – broadly, the concentration needed to halve the response being measured – was determined as 1.3 ± 0.2 nM with WT HIV-1; 0.6 ± 0.07 nM in the assay on HIV-1 RT mutant G190S; 29.6 nM in the assay with HIV-1 RT mutant M230L; 1.7 ± 0.7 nM in the assay on HIV-1 RT mutant P236L; 44.1 nM in [1] (setting [7]); 4.6 ± 0.3 nM in assay [2]. The IC50 in assay [3] is 4.6 ± 0.3 nM; in the assay on HIV-1 RT mutant D67E (D67E), 4.2 ± 0.8 nM; in the assay with HIV-1 RT mutant D67E (setting [8]), less than 6 nM; in [4] (E138K/M184I), 3 ± 0.3 nM; in assay [4] (setting [9]), less than 6 nM; in assay [5] (E138K/M184V) it was 5.5 ± 1 nM. In addition, the IC50 in assay [5] (setting [10]) was less than 6 nM; in assay [6], more than 100 nM; in the assay on HIV-1 RT mutant Y181C, less than 7 nM; in the assay with HIV-1 RT mutant H221Y it was less than 7 nM. The “fold-change of IC50 of the mutant relative to WT” value in the assay on HIV-1 RT mutant M230L was 23; in the assay on HIV-1 RT mutant P236L it was less than 2; in [1] it was 34; in assay [2], 4; in [3], 4; in the assay on HIV-1 RT mutant D67E, 3. The results for the “fold-change of IC50 of the mutant relative to WT” value in assay [4] and in [5] were 2 and 4, respectively.
Turning to `COc1ccc(Cn2cnc3c(Nc4ccc(C#N)cc4)nc(Nc4c(C)cc(/C=C/C#N)cc4C)nc32)cc1` [compound 12], the IC50 in the assay on WT HIV-1 is 0.67 ± 0.06 nM; with HIV-1 RT mutant G190S, 0.37 ± 0.02 nM; in the assay with HIV-1 RT mutant M230L, 13.8 nM; in the assay with HIV-1 RT mutant P236L it was 0.8 ± 0.2 nM; in assay [1] (setting [7]), less than 5.4 nM; in assay [1] (L100I/K103N), 4.3 ± 2.6 nM. Also, the IC50 in assay [2] is 3 ± 0.4 nM; in assay [3], 5.9 ± 0.14 nM; in the assay on HIV-1 RT mutant D67E (setting [8]), 29 ± 6.9 nM; in assay [4] (setting [9]), 2.4 ± 0.5 nM; in assay [5] (setting [10]), 4.9 ± 0.99 nM; in [6] it was more than 100 nM. Also, the IC50 with HIV-1 RT mutant Y181C and in the assay with HIV-1 RT mutant H221Y was less than 7 nM each time. Further, the “fold-change of IC50 of the mutant relative to WT” value in the assay on HIV-1 RT mutant M230L is 21; with HIV-1 RT mutant P236L it was less than 2; in assay [1], 6; in assay [2] it was 4; in assay [3] it was 9; in the assay on HIV-1 RT mutant D67E it was 43. The entries for the “fold-change of IC50 of the mutant relative to WT” value in assay [4] and in assay [5] were 4 and 7, respectively.
With `Cc1cc(/C=C/C#N)cc(C)c1Nc1nc(Nc2ccc(C#N)cc2)c2nc[nH]c2n1` [compound 13], the IC50 worked out at 0.26 ± 0.04 nM in the assay with WT HIV-1; 0.12 nM in the assay on HIV-1 RT mutant G190S; 0.31 ± 0.02 nM in the assay on HIV-1 RT mutant P236L; 0.3 ± 0.09 nM in [2]; 0.5 ± 0.2 nM in [3]; 1.6 ± 0.4 nM in the assay on HIV-1 RT mutant D67E (D67E). Further, the IC50 with HIV-1 RT mutant D67E (setting [8]) is less than 2.5 nM; in assay [6] it was more than 100 nM; with HIV-1 RT mutant Y181C, less than 7 nM; in the assay on HIV-1 RT mutant H221Y, less than 7 nM. For the same compound, the “fold-change of IC50 of the mutant relative to WT” value is 8 in the assay on HIV-1 RT mutant M230L; less than 2 in the assay on HIV-1 RT mutant P236L; 2 in assay [1]; less than 2 in assay [2]; less than 2 in assay [3]; 6 with HIV-1 RT mutant D67E. The results for the “fold-change of IC50 of the mutant relative to WT” value in [4] and in [5] were 3 and 4, respectively.
